{"source": "patent US20010009764A1", "about": "“Endothelial-derived toxic factor” (priority 1997, published 2001)", "key": {"[1]": {"system": "primary cerebral cortical cultures", "experiment": "Neurotoxicity (LDH release) of AD microvessel-conditioned medium", "assay_type": "cell-based, rat", "method": "Microvessels stored in liquid nitrogen, were quick-thawed at 37° C. and centrifuged at 2,000×g for 10 min. The vessels were washed 3 times with cold Hank's balanced salt-solution and resuspended in serum-free DMEM (2 ml) containing 1% lactalbumin hydrolysate. Microvessels were allowed to “recover” for 1 h, after which they released little LDH. The microvessels were washed by centrifugation and resuspended at a concentration of 100 μg protein per ml in serum-free DMEM containing 1% lactalbumin hydrolysate. The microvessels were then incubated for variable times (4-24 h) in a CO2 incubator, centrifuged, and the conditioned medium was sterile-filtered through a 0.4 μm filter, and used immediately.\nProcedures for primary neuronal cultures prepared from fetal rat brains were previously described (Grammas P, Moore P, Weigel P H, “Production of Neurotoxic Factors by Brain Endothelium in AD”, Ann. NY Acad. Sci., 826, 1997, which is hereby incorporated herein by reference.) Neurons are obtained and cultured from 17 day fetal rats. […] The purity of these cultures was determined by antibody reactivity to neuronal-specific enolase.\nCell death by necrosis was determined by release of cytoplasmic lactate dehydrogenase (LDH) (Grammas et al., “Production Of Neurotoxic Factors By Brain Endothelium In AD”, Ann NY Acad Sci, 826:47-55, 1997). […] The A490 of each well was measured to determine LDH activity. […]"}, "neuronal cultures [2]": {"system": "neuronal cultures", "experiment": "Neuronal cytotoxicity (LDH release) of conditioned media from rat brain endothelial cells treated with PKC modulators", "assay_type": "cell-based", "details": "for EDTF^BIM release from endothelial cell cultures: treatment with other PKC inhibitors; for cytotoxic response as % of that elicited by BIM: inhibitor 1 μM on endothelial cells, BIM-mediated cytotoxicity = 100%", "method": "FIG. 8. Specificity of endothelial derived toxic factor EDTF response to Protein Kinase C inhibition. To confirm that production of EDTF in response to BIM (EDTF^BIM) was indeed related to PKC inhibition, the effect of other PKC inhibitors, calphostin (Cal) and stauroporine (S'sporin) as well as the PKC agonist PMA, were examined. Endothelial cell cultures were incubated in serum-free media (control) containing either BIM (1 μM); BIM and PMA (1 μM each); calphostin (1 μM); or staurosporine (1 μM). The media were collected after 24 hours and added to neuronal cultures and cytotoxicity (LDH release) was measured after 24 hours. Data are expressed as a percentage of the BIM-mediated cytotoxicity (100%).\n(§1) Cell death by necrosis was determined by release of cytoplasmic lactate dehydrogenase (LDH) (Grammas et al., “Production Of Neurotoxic Factors By Brain Endothelium In AD”, Ann NY Acad Sci, 826:47-55, 1997). Medium (100 μl) from the neuronal cultures was removed, added to a 96-well plate, the chromogenic substrate added, and the plate was incubated at room temperature for 30 min in darkness. The A490 of each well was measured to determine LDH activity. Data (% cytotoxicity) were expressed as a percentage of total LDH released by treatment with 1% Triton X-100 added to the same well. Vascular LDH release, determined for microvessel-containing inserts placed in wells without neuronal cells, was subtracted from each co-culture point. Each point was performed in duplicate.\nFor the preparation of endothelial-conditioned media, the media were removed and confluent endothelial cell cultures washed with versene and fresh serum-free DMEM containing (unless otherwise indicated) 1 μM of the PKC inhibitor, bisindolylmaleimide (BIM), was added. The conditioned medium was collected, after 8-24 hrs, and centrifuged at 100,000 g to remove debris and suspended cells, and 5% heat-inactivated horse serum was added prior to application of media to neuronal cultures.\nNeurons were obtained and cultured from 15-18 day rat embryos by published methods (Dawson V. L., Dawson, T. M., London E. D., Bredt D. S., Snyder S. H., “Nitric Oxide Mediates Glutamate Neurotoxicity in Primary Cortical Cultures”, Proc. Natl. Acad. Sci. USA, 88:6368-6371, 1991, with our modifications: Grammas P, Moore P, Weigel P H, “Production of Neurotoxic Factors by Brain Endothelium in AD”, Ann. NY Acad. Sci., 826, 1997). Cerebral cortices were isolated, dissociated in Brooks-Logan solution (5% phosphate buffered saline, 0.04 M sucrose, 10 mM HEPES, pH 7.5, 0.03 M glucose) by trituration and seeded in polylysine-coated 24 well plates (15), containing DMEM with 5% heat-inactivated horse serum. After five days of culture, the cells were treated with 10 μg of 5-fluoro-2′-deoxyuridine per well and cultures were maintained for an additional 2 to 3 weeks."}, "[3]": {"system": "primary cerebral cortical cultures", "experiment": "Neuronal necrosis by candidate molecules at 4 h", "assay_type": "cell-based, rat", "details": "data not shown", "method": "as §1"}, "endothelial cultures": {"system": "endothelial cultures", "assay_type": "cell-based, rat", "method": "as §1\nSmall arterioles from rat brain were isolated, and endothelial cell cultures initiated, as previously published (Diglio C. A., Grammas P., Giacomelli F. and Wiener J., “Rat Cerebral Microvascular Smooth Muscle Cells in Culture”, J. Cell Physiol., 129:131-141, 1986; Diglio C. A., Liu W., Grammas P., Giacomelli F., and Wiener J., “Isolation and Characterization of Cerebral Resistance Vessel Endothelium in Culture”, Tissue and Cell, 25:833-846, 1993). […] Cells (passages 10-15) were maintained in Dulbecco's modified Eagle's medium (DMEM) and 10% fetal calf serum and subcultured using trypsin-versene (0.025%)."}, "neuronal cultures [4]": {"system": "neuronal cultures", "assay_type": "cell-based, rat", "method": "as §1\nNeurons were obtained and cultured from 15-18 day rat embryos by published methods (Dawson V. L., Dawson, T. M., London E. D., Bredt D. S., Snyder S. H., “Nitric Oxide Mediates Glutamate Neurotoxicity in Primary Cortical Cultures”, Proc. Natl. Acad. Sci. USA, 88:6368-6371, 1991, with our modifications: Grammas P, Moore P, Weigel P H, “Production of Neurotoxic Factors by Brain Endothelium in AD”, Ann. NY Acad. Sci., 826, 1997). […]"}}, "data": [{"compound": "N=C(NCCC[C@H](N)C(=O)O)N[N+](=O)[O-]", "note": "[N^GNitro-L-arginine]", "values": [{"measurement": "% neurotoxicity of conditioned medium", "setting": "[1]; AD microvessels with or without preincubation with 10 μM N^GNitro-L-arginine", "result": "69±12", "unit": "%"}]}, {"compound": "CCCCCCCCCCCCCC(=O)O[C@@H]1[C@@H](C)[C@@]2(O)[C@@H](C=C(CO)C[C@]3(O)C(=O)C(C)=C[C@@H]23)[C@@H]2C(C)(C)[C@]12OC(C)=O", "note": "[PMA, phorbol myristate acetate]", "values": [{"measurement": "reduction of neuronal cytotoxicity (EDTF^BIM release) compared to BIM alone", "setting": "neuronal cultures [2]; concurrent PMA and BIM, 1 μM each, media collected 24 hours, LDH after 24 hours", "result": "approximately 60%"}]}, {"compound": "C[C@@H]1C[C@@H]([C@H](O)CC2CC(=O)NC(=O)C2)C(=O)[C@@H](C)C1", "note": "[cycloheximide]", "values": [{"measurement": "decrease in neuronal necrosis", "setting": "[1]; AD microvessels incubated with cycloheximide 10 μg/ml", "result": 60, "unit": "%"}]}, {"compound": "CCCCCCCCCCCCC/C=C/[C@@H](O)[C@@H](N)CO", "note": "[sphingosine]", "values": [{"measurement": "EDTF^BIM release from endothelial cell cultures", "setting": "neuronal cultures [2]", "result": "elicited EDTF^BIM release"}]}, {"compound": "CN[C@@H]1C[C@H]2O[C@@](C)([C@@H]1OC)n1c3ccccc3c3c4c(c5c6ccccc6n2c5c31)C(=O)NC4", "note": "[staurosporine]", "values": [{"measurement": "cytotoxic response as % of that elicited by BIM", "setting": "neuronal cultures [2]", "result": 47, "unit": "%"}]}, {"compound": "amyloid β", "values": [{"measurement": "neuronal necrosis at 4 h", "setting": "[3]", "result": "little neuronal necrosis"}]}, {"compound": "bisindolylmaleimide [BIM]", "values": [{"measurement": "% cytotoxicity on endothelial cultures", "setting": "endothelial cultures", "result": 10, "unit": "%"}, {"measurement": "% cytotoxicity when added directly to neuronal cultures", "setting": "neuronal cultures [4]", "result": 16, "unit": "%"}]}, {"compound": "calphostin", "values": [{"measurement": "cytotoxic response as % of that elicited by BIM", "setting": "neuronal cultures [2]", "result": 60, "unit": "%"}, {"measurement": "EDTF^BIM release from endothelial cell cultures", "setting": "neuronal cultures [2]", "result": "elicited EDTF^BIM release"}]}, {"compound": "tumor necrosis factor α", "values": [{"measurement": "neuronal necrosis at 4 h", "setting": "[3]", "result": "little neuronal necrosis"}]}]}
